Source: PubChem BioAssay (NCI)
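Method: 48-hour compound exposure of cells in 96-well plates, five concentrations, linear interpolation of endpoints. At the GI50, growth is halved. TGI: concentration producing complete growth inhibition.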

What was measured:
Assay in all cases: NCI tumour cell line growth inhibition, 48 h
786-0 renal = test system: 786-0 renal
A498 renal = test system: A498 renal
A549 NSCLC = test system: A549 NSCLC
ACHN renal = test system: ACHN renal
BT-549 breast = test system: BT-549 breast
CAKI-1 renal = test system: CAKI-1 renal
CCRF-CEM leukemia = test system: CCRF-CEM leukemia
COLO 205 colon = test system: COLO 205 colon
DU-145 prostate = test system: DU-145 prostate
EKVX NSCLC = test system: EKVX NSCLC
HCC-2998 colon = test system: HCC-2998 colon
HCT-116 colon = test system: HCT-116 colon
HCT-15 colon = test system: HCT-15 colon
HL-60(TB) leukemia = test system: HL-60(TB) leukemia
HOP-62 NSCLC = test system: HOP-62 NSCLC
HOP-92 NSCLC = test system: HOP-92 NSCLC
HS 578T breast = test system: HS 578T breast
HT29 colon = test system: HT29 colon
IGROV1 ovarian = test system: IGROV1 ovarian
K-562 leukemia = test system: K-562 leukemia
KM12 colon = test system: KM12 colon
LOX IMVI melanoma = test system: LOX IMVI melanoma
M14 melanoma = test system: M14 melanoma
MALME-3M melanoma = test system: MALME-3M melanoma
MCF7 breast = test system: MCF7 breast
MDA-MB-231 breast = test system: MDA-MB-231 breast
MDA-MB-435 = test system: MDA-MB-435
MDA-MB-468 breast = test system: MDA-MB-468 breast
MOLT-4 leukemia = test system: MOLT-4 leukemia
NCI-H226 lung = test system: NCI-H226 lung
NCI-H23 lung = test system: NCI-H23 lung
NCI-H460 lung = test system: NCI-H460 lung
NCI-H522 lung = test system: NCI-H522 lung
NCI/ADR-RES ovarian = test system: NCI/ADR-RES ovarian
OVCAR-3 ovarian = test system: OVCAR-3 ovarian
OVCAR-4 ovarian = test system: OVCAR-4 ovarian
OVCAR-5 ovarian = test system: OVCAR-5 ovarian
OVCAR-8 ovarian = test system: OVCAR-8 ovarian
PC-3 prostate = test system: PC-3 prostate
RPMI-8226 leukemia = test system: RPMI-8226 leukemia
RXF 393 renal = test system: RXF 393 renal
SF-268 CNS = test system: SF-268 CNS
SF-295 CNS = test system: SF-295 CNS
SF-539 CNS = test system: SF-539 CNS
SK-MEL-2 melanoma = test system: SK-MEL-2 melanoma
SK-MEL-28 melanoma = test system: SK-MEL-28 melanoma
SK-MEL-5 melanoma = test system: SK-MEL-5 melanoma
SK-OV-3 ovarian = test system: SK-OV-3 ovarian
SN12C renal = test system: SN12C renal
SNB-19 CNS = test system: SNB-19 CNS
SNB-75 CNS = test system: SNB-75 CNS
SR leukemia = test system: SR leukemia
SW-620 colon = test system: SW-620 colon
T-47D breast = test system: T-47D breast
TK-10 renal = test system: TK-10 renal
U251 CNS = test system: U251 CNS
UACC-257 melanoma = test system: UACC-257 melanoma
UACC-62 melanoma = test system: UACC-62 melanoma
UO-31 renal = test system: UO-31 renal

## O=c1[nH]c2ccccc2cc1CSc1ccc(Nc2nccc(-c3ccc(Cl)cc3)n2)cc1
786-0 renal
  GI50: 1160 nM
  TGI: 2550 nM
A498 renal
  GI50: 1230 nM
  TGI: 2600 nM
A549 NSCLC
  GI50: 1460 nM
  TGI: 3.5 µM
ACHN renal
  GI50: 744 nM
  TGI: 2180 nM
BT-549 breast
  GI50: 2160 nM
  TGI: 6.98 µM
CAKI-1 renal
  GI50: 1170 nM
  TGI: 2730 nM
CCRF-CEM leukemia
  GI50: 2930 nM
  TGI: 23.2 µM
COLO 205 colon
  GI50: 2640 nM
  TGI: 25 µM
DU-145 prostate
  GI50: 1520 nM
  TGI: 9.16 µM
EKVX NSCLC
  GI50: 1420 nM
  TGI: 4.77 µM
HCC-2998 colon
  GI50: 4.05 µM
  TGI: 25.3 µM
HCT-116 colon
  GI50: 644 nM
  TGI: 3.65 µM
HCT-15 colon
  GI50: 1020 nM
  TGI: 15.2 µM
HL-60(TB) leukemia
  GI50: 43.2 µM
  TGI: > 100 µM
HOP-62 NSCLC
  GI50: 1720 nM
  TGI: 3.45 µM
HOP-92 NSCLC
  GI50: 1110 nM
  TGI: 2800 nM
HS 578T breast
  GI50: 621 nM
  TGI: 3.45 µM
HT29 colon
  GI50: 917 nM
  TGI: 5.52 µM
IGROV1 ovarian
  GI50: 3.71 µM
  TGI: 14.3 µM
K-562 leukemia
  GI50: 2570 nM
  TGI: 18.3 µM
KM12 colon
  GI50: 11 µM
  TGI: > 100 µM
LOX IMVI melanoma
  GI50: 1830 nM
  TGI: 5.24 µM
M14 melanoma
  GI50: 4.9 µM
  TGI: 30.9 µM
MALME-3M melanoma
  GI50: 1810 nM
  TGI: 6.09 µM
MCF7 breast
  GI50: 2590 nM
  TGI: 15.9 µM
MDA-MB-231 breast
  GI50: 1260 nM
  TGI: 3.04 µM
MDA-MB-435
  GI50: 2750 nM
  TGI: 13.1 µM
MDA-MB-468 breast
  GI50: 1150 nM
  TGI: 3.14 µM
MOLT-4 leukemia
  GI50: 3.78 µM
  TGI: 56.9 µM
NCI-H226 lung
  GI50: 1300 nM
  TGI: 2880 nM
NCI-H23 lung
  GI50: 1660 nM
  TGI: 4.85 µM
NCI-H460 lung
  GI50: 383 nM
  TGI: 1420 nM
NCI-H522 lung
  GI50: 2170 nM
  TGI: 6.79 µM
NCI/ADR-RES ovarian
  GI50: 1130 nM
  TGI: 3.32 µM
OVCAR-3 ovarian
  GI50: 945 nM
  TGI: 2460 nM
OVCAR-4 ovarian
  GI50: 334 nM
  TGI: 1260 nM
OVCAR-5 ovarian
  GI50: 2470 nM
  TGI: 11.2 µM
OVCAR-8 ovarian
  GI50: 1600 nM
  TGI: 3.5 µM
PC-3 prostate
  GI50: 1830 nM
  TGI: 6.28 µM
RPMI-8226 leukemia
  GI50: 2410 nM
  TGI: 21.5 µM
RXF 393 renal
  GI50: 1700 nM
  TGI: 4.42 µM
SF-268 CNS
  GI50: 1070 nM
  TGI: 4.97 µM
SF-295 CNS
  GI50: 776 nM
  TGI: 2140 nM
SF-539 CNS
  GI50: 1660 nM
  TGI: 3.4 µM
SK-MEL-2 melanoma
  GI50: 12.9 µM
  TGI: 26.2 µM
SK-MEL-28 melanoma
  GI50: 4.45 µM
  TGI: 23.6 µM
SK-MEL-5 melanoma
  GI50: 2490 nM
  TGI: 9.56 µM
SK-OV-3 ovarian
  GI50: 2260 nM
  TGI: 5.49 µM
SN12C renal
  GI50: 1990 nM
  TGI: 4.47 µM
SNB-19 CNS
  GI50: 1180 nM
  TGI: 2580 nM
SNB-75 CNS
  GI50: 245 nM
  TGI: 1420 nM
SR leukemia
  GI50: 6.37 µM
  TGI: 29.7 µM
SW-620 colon
  GI50: 1540 nM
  TGI: 13.4 µM
T-47D breast
  GI50: 2240 nM
  TGI: 8.07 µM
TK-10 renal
  GI50: 1650 nM
  TGI: 3.34 µM
U251 CNS
  GI50: 368 nM
  TGI: 1440 nM
UACC-257 melanoma
  GI50: 13.3 µM
  TGI: 79.5 µM
UACC-62 melanoma
  GI50: 3.92 µM
  TGI: 15.2 µM
UO-31 renal
  GI50: 1830 nM
  TGI: 4.03 µM
